From US8088763B2 (priority 2004, dated 2012)

What was measured:
[1] = target: T1, 5HT-uptake (Rattus norvegicus, UniProt P31652); assay: biochemical; details: for inhibition at 10 µM: read-out: 5HT-uptake [10 μM], % inhibition
T1 construct: synaptosomes were freshly isolated from areas of rats' brains

[2] = target: NA-uptake (Rattus norvegicus, UniProt Q63380); assay: biochemical; details: for inhibition at 10 µM: read-out: NA-uptake [10 μM], % inhibition
Sequence of NA-uptake (Q63380 1-617): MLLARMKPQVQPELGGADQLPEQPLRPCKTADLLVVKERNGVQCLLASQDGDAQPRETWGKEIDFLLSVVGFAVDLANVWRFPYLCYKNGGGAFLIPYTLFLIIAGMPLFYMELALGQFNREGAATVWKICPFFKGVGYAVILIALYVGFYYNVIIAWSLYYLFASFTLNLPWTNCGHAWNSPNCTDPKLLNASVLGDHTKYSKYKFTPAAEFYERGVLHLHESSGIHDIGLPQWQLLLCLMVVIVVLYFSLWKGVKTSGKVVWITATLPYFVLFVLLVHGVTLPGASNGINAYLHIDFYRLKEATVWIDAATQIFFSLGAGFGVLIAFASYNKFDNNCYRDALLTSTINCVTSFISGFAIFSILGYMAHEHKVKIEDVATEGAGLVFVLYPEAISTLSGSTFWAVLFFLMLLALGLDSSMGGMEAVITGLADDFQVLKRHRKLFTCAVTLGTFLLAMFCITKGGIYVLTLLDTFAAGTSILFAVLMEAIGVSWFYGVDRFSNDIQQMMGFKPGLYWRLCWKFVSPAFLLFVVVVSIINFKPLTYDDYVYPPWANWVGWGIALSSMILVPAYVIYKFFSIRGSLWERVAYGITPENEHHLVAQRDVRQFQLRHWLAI

T1 sequence (P31652 whole entry): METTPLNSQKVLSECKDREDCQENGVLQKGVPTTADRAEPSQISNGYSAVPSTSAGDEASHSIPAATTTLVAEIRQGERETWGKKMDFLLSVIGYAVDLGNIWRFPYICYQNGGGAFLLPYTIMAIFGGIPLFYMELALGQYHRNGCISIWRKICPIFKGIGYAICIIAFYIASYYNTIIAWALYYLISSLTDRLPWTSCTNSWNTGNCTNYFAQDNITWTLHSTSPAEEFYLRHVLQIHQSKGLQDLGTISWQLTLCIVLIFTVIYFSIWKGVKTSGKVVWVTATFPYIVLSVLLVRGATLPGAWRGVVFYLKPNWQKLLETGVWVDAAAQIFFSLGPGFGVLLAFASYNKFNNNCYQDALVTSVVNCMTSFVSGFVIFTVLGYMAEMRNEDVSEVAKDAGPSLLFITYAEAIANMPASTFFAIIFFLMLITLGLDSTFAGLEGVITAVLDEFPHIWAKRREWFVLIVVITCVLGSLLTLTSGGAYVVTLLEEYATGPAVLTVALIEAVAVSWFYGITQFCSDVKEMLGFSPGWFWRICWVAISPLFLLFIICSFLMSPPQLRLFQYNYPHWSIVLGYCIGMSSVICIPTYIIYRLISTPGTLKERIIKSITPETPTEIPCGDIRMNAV

Cc1cnc(C(=O)N2CCN(C(=O)CCC(=O)NC3CCC(Cc4cccc(Cl)c4)(N(C)C)CC3)CC2)cn1 (centres unmarked) [Example 33, N-[4-(3-chloro-benzyl)-4-dimethylamino-cyclohexyl]-4-[4-(5-methyl-pyrazin-2-carbonyl)-piperazin-1-yl]-4-oxo-butyramide]
inhibition at 10 µM [1]: 95%
inhibition at 10 µM [2]: 99%

CN(C)C1(Cc2ccc(Cl)cc2)CCC(NC(=O)CCC(=O)NCc2cccc3ccccc23)CC1 (centres unmarked) [Example 34, N-[4-(4-chloro-benzyl)-4-dimethylamino-cyclohexyl]-N′-naphthalen-1-ylmethyl-succinamide]
inhibition at 10 µM [1]: 97%
inhibition at 10 µM [2]: 87%

COc1ccc(CN2CCN(C(=O)CCC(=O)NC3CCC(Cc4cccc(C)c4)(N(C)C)CC3)CC2)cc1F (centres unmarked) [Example 35, N-[4-dimethylamino-4-(3-methyl-benzyl)-cyclohexyl]-4-[4-(3-fluoro-4-methoxy-benzyl)-piperazin-1-yl]-4-oxo-butyramide]
inhibition at 10 µM [1]: 94%
inhibition at 10 µM [2]: 95%

Cc1ccc(CC2(N(C)C)CCC(NC(=O)CCC(=O)N(C)CCc3c[nH]c4ccccc34)CC2)cc1 (centres unmarked) [Example 36, N-[4-dimethylamino-4-(4-methyl-benzyl)-cyclohexyl]-N′-[2-(1H-indol-3-yl)-ethyl]-N′-methyl-succinamide]
inhibition at 10 µM [1]: 96%
inhibition at 10 µM [2]: 93%

CCOP(=O)(Cc1ccc(NC(=O)CCC(=O)NC2CCC(Cc3cccc(Cl)c3)(N(C)C)CC2)cc1)OCC (centres unmarked) [Example 37, (4-{3-[4-(3-chloro-benzyl)-4-dimethylamino-cyclohexylcarbamoyl]-propionylamino}-benzyl)-phosphonic acid diethylester]
inhibition at 10 µM [1]: 95%
inhibition at 10 µM [2]: 100%

Cc1ccc(CC2(N(C)C)CCC(NC(=O)CCC(=O)N(C)CCc3ccccn3)CC2)cc1 (centres unmarked) [Example 38, N-[4-dimethylamino-4-(4-methyl-benzyl)-cyclohexyl]-N′-methyl-N′-(2-pyridin-2-yl-ethyl)-succinamide]
inhibition at 10 µM [1]: 95%
inhibition at 10 µM [2]: 79%

CN(C)C1(Cc2cccc(Cl)c2)CCC(NC(=O)CCC(=O)N2CC=CCC2)CC1 (centres unmarked) [Example 39, N-[4-(3-chloro-benzyl)-4-dimethylamino-cyclohexyl]-4-(3,6-dihydro-2H-pyridin-1-yl)-4-oxo-butyramide]
inhibition at 10 µM [1]: 94%
inhibition at 10 µM [2]: 90%

Cc1cnc(C(=O)N2CCN(C(=O)CCCC(=O)NC3CCC(Cc4ccccc4)(N(C)C)CC3)CC2)cn1 (centres unmarked) [Example 41, 5-[4-(5-methyl-pyrazin-2-carbonyl)-piperazin-1-yl]-5-oxo-valeric acid (4-benzyl-4-dimethylamino-cyclohexyl)-amide]
inhibition at 10 µM [1]: 92%
inhibition at 10 µM [2]: 90%

C=CCN(C)C(=O)CCC(=O)NC1CCC(Cc2cccc(Cl)c2)(N(C)C)CC1 (centres unmarked) [Example 43, N-allyl-N′-[4-(3-chloro-benzyl)-4-dimethylamino-cyclohexyl]-N-methyl-succinamide]
inhibition at 10 µM [1]: 98%
inhibition at 10 µM [2]: 96%

CN(C)C1(Cc2ccc(Cl)cc2)CCC(NC(=O)CCC(=O)NC2CCCC2)CC1 (centres unmarked) [Example 44, N-[4-(4-chloro-benzyl)-4-dimethylamino-cyclohexyl]-Nt-cyclopentyl-succinamide]
5HT-uptake [10 μM], % inhibition [1]: 94%
NA-uptake [10 μM], % inhibition [2]: 84%

Cc1ccc(CC2(N(C)C)CCC(NC(=O)CCC(=O)NCC3CCCO3)CC2)cc1 (centres unmarked) [Example 45, N-[4-dimethylamino-4-(4-methyl-benzyl)-cyclohexyl]-N′-(tetrahydro-furan-2-ylmethyl)-succinamide]
inhibition at 10 µM [1]: 92%
inhibition at 10 µM [2]: 77%

CCOP(=O)(Cc1ccc(NC(=O)CCC(=O)NC2CCC(Cc3cccc(C)c3)(N(C)C)CC2)cc1)OCC (centres unmarked) [Example 46, (4-{3-[4-dimethylamino-4-(3-methyl-benzyl)-cyclohexylcarbamoyl]-propionylamino}-benzyl)-phosphonic acid diethylester]
inhibition at 10 µM [1]: 92%
inhibition at 10 µM [2]: 89%

COc1ccccc1N1CCN(C(=O)CCC(=O)NC2CCC(Cc3ccc(Cl)cc3)(N(C)C)CC2)CC1 (centres unmarked) [Example 47, N-[4-(4-chloro-benzyl)-4-dimethylamino-cyclohexyl]-4-[4-(2-methoxy-phenyl)-piperazin-1-yl]-4-oxo-butyramide]
inhibition at 10 µM [1]: 93%
inhibition at 10 µM [2]: 73%

COc1cccc(N2CCN(C(=O)CCC(=O)NC3CCC(Cc4cccc(C)c4)(N(C)C)CC3)CC2)c1 (centres unmarked) [Example 48, N-[4-dimethylamino-4-(3-methyl-benzyl)-cyclohexyl]-4-[4-(3-methoxy-phenyl)-piperazin-1-yl]-4-oxo-butyramide]
inhibition at 10 µM [1]: 94%
inhibition at 10 µM [2]: 97%

CN(C)C1(Cc2ccc(Cl)cc2)CCC(NC(=O)CCC(=O)NCc2cc(F)cc(F)c2)CC1 (centres unmarked) [Example 49, N-[4-(4-chloro-benzyl)-4-dimethylamino-cyclohexyl]-N′-(3,5-difluoro-benzyl)-succinamide]
inhibition at 10 µM [1]: 92%
inhibition at 10 µM [2]: 98%

Cc1ccccc1CNC(=O)CCC(=O)NC1CCC(Cc2ccc(Cl)cc2)(N(C)C)CC1 (centres unmarked) [Example 50, N-[4-(4-chloro-benzyl)-4-dimethylamino-cyclohexyl]-N′-(2-methyl-benzyl)-succinamide]
inhibition at 10 µM [1]: 92%
inhibition at 10 µM [2]: 89%

Cc1ccc(CC2(N(C)C)CCC(NC(=O)CCC(=O)N3CCC(CNC(=O)C(F)(F)F)CC3)CC2)cc1 (centres unmarked) [Example 51, N-[4-dimethylamino-4-(4-methyl-benzyl)-cyclohexyl]-4-oxo-4-{4-[(2,2,2-trifluoro-acetylamino)-methyl]-piperidin-1-yl}-butyramide]
inhibition at 10 µM [1]: 92%
inhibition at 10 µM [2]: 77%

CN(C)C1(Cc2ccc(Cl)cc2)CCC(NC(=O)CCC(=O)NCCc2c[nH]c3ccccc23)CC1 (centres unmarked) [Example 52, N-[4-(4-chloro-benzyl)-4-dimethylamino-cyclohexyl]-N′-[2-(1H-indol-3-yl)-ethyl]-succinamide]
inhibition at 10 µM [1]: 96%
inhibition at 10 µM [2]: 88%

CN(CCc1c[nH]c2ccccc12)C(=O)CCC(=O)NC1CCC(Cc2cccc(Cl)c2)(N(C)C)CC1 (centres unmarked) [Example 53, N-[4-(3-chloro-benzyl)-4-dimethylamino-cyclohexyl]-N′-[2-(1H-indol-3-yl)-ethyl]-N′-methyl-succinamide]
inhibition at 10 µM [1]: 93%
inhibition at 10 µM [2]: 94%

COc1cc(CN2CCN(C(=O)CCCC(=O)NC3CCC(Cc4ccccc4)(N(C)C)CC3)CC2)cc2c1OCO2 (centres unmarked) [Example 54]
5HT-uptake [10 μM], % inhibition [1]: 95%
NA-uptake [10 μM], % inhibition [2]: 90%

Cc1cccc(N2CCN(C(=O)CCCC(=O)NC3CCC(Cc4ccccc4)(N(C)C)CC3)CC2)c1C (centres unmarked) [Example 56, 5-[4-(2,3-dimethyl-phenyl)-piperazin-1-yl]-5-oxo-valeric acid (4-benzyl-4-dimethylamino-cyclohexyl)-amide]
inhibition at 10 µM [1]: 95%
inhibition at 10 µM [2]: 96%

CN(CCc1c[nH]c2ccccc12)C(=O)CCC(=O)NC1CCC(Cc2ccc(Cl)cc2)(N(C)C)CC1 (centres unmarked) [Example 57, N-[4-(4-chloro-benzyl)-4-dimethylamino-cyclohexyl]-N′-[2-(1H-indol-3-yl)-ethyl]-N′-methyl-succinamide]
inhibition at 10 µM [1]: 93%
inhibition at 10 µM [2]: 100%
